Measurements: ChEMBL document CHEMBL3813652, “Arabinoamidine synthesis and its inhibition toward β-glucosidase (sweet almonds) in comparison to a library of galactonoamidines” (Bioorg Med Chem, 2016)
Activity calls are given as the source filed them. No cut-off for these calls is given here.

Experiments:
[1] = Inhibition of sweet almond beta-glucosidase assessed as enzymatic hydrolysis of 2-chloro-4-nitrophenyl beta-D-glucopyranoside preincubated with substrate for 20 mins followed by protein addition by UV-visible spectroscopy; design: species or system Prunus dulcis
[2] = Inhibition of sweet almond beta-glucosidase assessed as enzyme mediated hydrolysis of 2-chloro-4-nitrophenyl beta-D-glucopyranoside preincubated with substrate for 30 mins followed by protein addition measured every 10 secs for 10 mins by UV-visible spectroscopy; design: species or system Prunus dulcis
Prunus dulcis [3] = test: Competitive inhibition of sweet almond beta-glucosidase assessed as enzymatic hydrolysis of 2-chloro-4-nitrophenyl beta-D-glucopyranoside at 200 and 1200 uM by Lineweaver-Burk plot
Prunus dulcis [4] = test: Competitive inhibition of sweet almond beta-glucosidase assessed as enzymatic hydrolysis of 2-chloro-4-nitrophenyl beta-D-glucopyranoside at 0.0125 and 0.025 uM by Lineweaver-Burk plot

SMILES | IC50 [1] | Ki [2] | inhibition (Prunus dulcis [3]) | inhibition (Prunus dulcis [4])
CCCCC(CC)CNC1=N[C@H](CO)[C@H](O)[C@H](O)[C@H]1O (stereo partly drawn) | 2.5 µM | 17.2 µM | – | –
O=C1N[C@H](CO)[C@H](O)[C@H](O)[C@H]1O | > 1000 µM | – | – | –
OC[C@H]1N/C(=N\Cc2ccc(F)cc2)[C@H](O)[C@@H](O)[C@H]1O | 4.7 µM | 57.5 µM | – | –
OC[C@H]1N/C(=N\CC2CCCCCC2)[C@H](O)[C@@H](O)[C@H]1O | 5 µM | 27.1 µM | – | –
OC[C@H]1N/C(=N\Cc2cccc(F)c2)[C@H](O)[C@@H](O)[C@H]1O | 11 µM | 124 µM | – | –
OC[C@H]1N/C(=N\Cc2ccccc2F)[C@H](O)[C@@H](O)[C@H]1O | 1.8 µM | 118 µM | – | –
OC[C@H]1N/C(=N\Cc2ccc(C(F)(F)F)cc2)[C@H](O)[C@@H](O)[C@H]1O | 2.8 µM | 87.9 µM | – | –
Cc1cccc(C/N=C2\N[C@H](CO)[C@H](O)[C@H](O)[C@H]2O)c1 | 5.1 µM | 293 µM | – | –
CO[C@@H]1[C@H](O)[C@@H](O)C(NCc2ccc(C)cc2)=N[C@@H]1CO | > 5000 µM | 13 µM | – | –
COc1ccc(C/N=C2\N[C@H](CO)[C@H](O)[C@H](O)[C@H]2O)cc1 | 13 µM | 55.9 µM | – | –
OC[C@H]1N/C(=N\CC2CCCCC2)[C@H](O)[C@@H](O)[C@H]1O | 1.6 µM | 49.2 µM | – | –
CC(C)(C)c1ccc(C/N=C2\N[C@H](CO)[C@H](O)[C@H](O)[C@H]2O)cc1 | 2.3 µM | 14.7 µM | – | –
Cc1ccc(CNC2=N[C@H](CO)[C@@H](O)[C@@H]2O)cc1 | 6200 µM | 970 µM | Active | Active
CCC/N=C1\N[C@H](CO)[C@H](O)[C@H](O)[C@H]1O | 4.8 µM | 18.7 µM | – | –
OC[C@H]1N/C(=N\CCCc2ccccc2)[C@H](O)[C@@H](O)[C@H]1O | 1.3 µM | 28.1 µM | – | –
Cc1ccc(C/N=C2\N[C@H](CO)[C@H](O)[C@H](O)[C@H]2O)cc1 | 3 µM | 0.026 µM | Active | Active
CO[C@H]1C(NCc2ccc(C)cc2)=N[C@H](CO)[C@H](O)[C@@H]1O | > 5000 µM | 5 µM | – | –
OC[C@H]1N/C(=N\Cc2ccccc2)[C@H](O)[C@@H](O)[C@H]1O | 2.8 µM | 108 µM | – | –
N=C1N[C@H](CO)[C@H](O)[C@H](O)[C@H]1O | > 1000 µM | – | – | –
OC[C@H]1N/C(=N\C2CC2)[C@H](O)[C@@H](O)[C@H]1O | 32 µM | 11.8 µM | – | –
OC[C@H]1N/C(=N\CC2CC2)[C@H](O)[C@@H](O)[C@H]1O | 19 µM | 11.5 µM | – | –
CCCCCCCCCCCC/N=C1\N[C@H](CO)[C@H](O)[C@H](O)[C@H]1O | 0.4 µM | 20.5 µM | – | –
Cc1ccc(CNC2=N[C@H](CO)[C@H](O)[C@H](O)C2)cc1 | > 5000 µM | 7.7 µM | – | –
Cc1ccccc1C/N=C1\N[C@H](CO)[C@H](O)[C@H](O)[C@H]1O | 8.4 µM | 26.2 µM | – | –
OC[C@H]1N/C(=N\C2CCCCC2)[C@H](O)[C@@H](O)[C@H]1O | > 5000 µM | – | – | –
CCCCCCC/N=C1\N[C@H](CO)[C@H](O)[C@H](O)[C@H]1O | 2.2 µM | 29.6 µM | – | –
